Tests used:
Format in all cases: cell-based
[1] = biological target: T1, LFA-1 (Homo sapiens, UniProt P20701); assay: V well cell adhesion assay, LFA-1-mediated Jurkat cell binding to ICAM-1 (LFA-1 adhesion); details: Jurkat cells on ICAM-1/Fc; mean ±SD of ≥3 independent experiments in triplicates or single experiments in triplicates
T1 construct: endogenous in cells; host or cells: Jurkat cells
Method: Cell-Based Assay to Determine the Effect of the Compounds on LFA-1-Mediated Cell Adhesion (LFA-1 Adhesion)
Purpose of the Assay: The V well cell adhesion assay measures the ability of the compounds to interfere with LFA-1-mediated binding to ICAM-1 at cellular level. The assay has been successfully used in the past to identify and characterize small molecules LFA-1 inhibitors.
Experimental Protocol: The adhesion assay was performed in Vbottom 96-well plates as described previously [Weitz-Schmidt 2012]. Briefly, the plates were coated with anti-human IgG mAb diluted in coating buffer (20 mM Tris containing 150 mM NaCl, pH 8) (1 μg/mL) and incubated overnight at 4° C. The plates were flicked out and blocked with blocking buffer (50 mM Tris base, 150 mM NaCl, 1.5% BSA (w/v), pH 7.2) at 37° C. for 90 min. Then human recombinant ICAM-1/Fc (R&D Systems) diluted in coating buffer (0.3 μg/mL) was added to each well. The plates were incubated at 37° C. for 90 min and washed with binding buffer (50 mM Tris base, 150 mM NaCl, 1.5% BSA (w/v), 2 mM MgCl2, 2 mM MnCl2, 5 mM D-glucose monohydrate, pH 7.2-7.4) to remove unbound ligand.
Jurkat cells were cultured under standard conditions as recommended by the American Type Culture collection (ATCC). The cells were fluorescently labelled with BCECF-AM in PBS (1 μg/mL) at 37° C. for 20 min in the dark, centrifuged and washed with PBS. The test compounds were dissolved in DMSO at 10 mM and serially pre-diluted in DMSO (100%) to avoid precipitation, before performing final dilution steps in binding buffer.
The labelled Jurkat cells were re-suspended in binding buffer and test compounds or solvent control were added. The DMSO concentration was kept constant in all samples (1% DMSO as final assay concentration). After 40 min at 37° C. (LFA-1 activation and compound pre-incubation step) the cell suspension (3×10^5 cells/mL in binding buffer) was pipetted up and down and transferred to the ligand-coated microtiter V well plates (30 000 cells/well). The plates were centrifuged for 4 min at room temperature (rt) at 1000 rpm (Centrifuge Eppendorf 5810 R), setting the brake off Non-adherent cells that accumulated in the center of the Vbottom were quantified using a fluorescence reader with the filter sets allowing excitation at 485 nm and quantification of emission at 535 nm. The determination of the half maximal inhibitory concentration (IC50) of the compounds was calculated using the software GraphPad Prism 6.

[2] = biological target: T2, VLA-4 (Homo sapiens, UniProt P05556+P13612); assay: V well cell adhesion assay, VLA-4-mediated Jurkat cell binding to VCAM-1 (VLA-4 adhesion); details: Jurkat cells on VCAM-1 Fc; single experiments run in triplicates
T2 construct: endogenous in cells; host or cells: Jurkat cells
T2 sequence (P13612 34-1032): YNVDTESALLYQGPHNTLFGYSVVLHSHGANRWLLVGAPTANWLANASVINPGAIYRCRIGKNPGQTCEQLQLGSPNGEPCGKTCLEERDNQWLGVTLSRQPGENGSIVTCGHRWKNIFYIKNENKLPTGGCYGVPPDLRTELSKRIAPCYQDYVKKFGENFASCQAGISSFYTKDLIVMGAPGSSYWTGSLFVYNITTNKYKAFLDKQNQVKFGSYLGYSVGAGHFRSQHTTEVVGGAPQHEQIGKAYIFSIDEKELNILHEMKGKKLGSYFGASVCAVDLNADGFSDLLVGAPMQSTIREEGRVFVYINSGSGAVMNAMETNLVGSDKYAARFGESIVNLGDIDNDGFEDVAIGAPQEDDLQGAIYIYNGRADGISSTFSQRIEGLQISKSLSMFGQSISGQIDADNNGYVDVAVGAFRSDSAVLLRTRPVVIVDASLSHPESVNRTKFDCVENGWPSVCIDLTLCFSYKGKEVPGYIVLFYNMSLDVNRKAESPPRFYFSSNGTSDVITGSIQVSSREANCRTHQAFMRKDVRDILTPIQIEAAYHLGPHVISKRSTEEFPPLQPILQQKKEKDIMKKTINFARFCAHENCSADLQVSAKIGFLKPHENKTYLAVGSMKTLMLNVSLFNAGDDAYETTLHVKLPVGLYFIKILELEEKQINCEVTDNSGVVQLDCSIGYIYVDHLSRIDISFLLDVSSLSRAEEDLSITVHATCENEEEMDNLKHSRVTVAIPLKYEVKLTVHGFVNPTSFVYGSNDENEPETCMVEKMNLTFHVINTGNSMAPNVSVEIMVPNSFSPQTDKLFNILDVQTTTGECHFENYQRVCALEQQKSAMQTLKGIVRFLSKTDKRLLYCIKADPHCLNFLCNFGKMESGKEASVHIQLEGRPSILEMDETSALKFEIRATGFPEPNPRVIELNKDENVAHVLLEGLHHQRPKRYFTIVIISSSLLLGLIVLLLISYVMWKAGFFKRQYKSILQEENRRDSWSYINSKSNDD
T2 sequence (P05556 21-798): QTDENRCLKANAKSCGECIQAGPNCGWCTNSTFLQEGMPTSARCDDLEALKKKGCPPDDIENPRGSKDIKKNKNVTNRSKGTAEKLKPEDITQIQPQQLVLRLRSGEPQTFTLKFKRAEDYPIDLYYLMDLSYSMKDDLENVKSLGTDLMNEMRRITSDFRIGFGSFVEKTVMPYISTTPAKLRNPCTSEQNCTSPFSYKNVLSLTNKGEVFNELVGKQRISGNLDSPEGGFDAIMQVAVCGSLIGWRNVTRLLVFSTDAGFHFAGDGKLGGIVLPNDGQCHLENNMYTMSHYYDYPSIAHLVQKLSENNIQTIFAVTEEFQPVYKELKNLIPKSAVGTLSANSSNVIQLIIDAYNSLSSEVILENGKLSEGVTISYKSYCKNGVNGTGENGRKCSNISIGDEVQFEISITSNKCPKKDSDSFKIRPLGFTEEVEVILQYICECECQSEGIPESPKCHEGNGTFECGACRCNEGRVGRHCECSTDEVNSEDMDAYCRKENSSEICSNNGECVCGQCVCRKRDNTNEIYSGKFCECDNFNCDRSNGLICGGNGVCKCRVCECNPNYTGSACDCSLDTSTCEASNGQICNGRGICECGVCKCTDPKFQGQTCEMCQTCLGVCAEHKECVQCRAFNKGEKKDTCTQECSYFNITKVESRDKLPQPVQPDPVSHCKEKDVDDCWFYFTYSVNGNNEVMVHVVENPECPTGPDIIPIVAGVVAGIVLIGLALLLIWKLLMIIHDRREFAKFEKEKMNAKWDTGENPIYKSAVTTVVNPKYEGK
Method: Cell-Based Assay to Determine the Selectivity of the Compounds Over the Integrin VLA-4 (VLA-4 Adhesion)
Purpose of the Assay: This V well cell adhesion assay measures the effect of the compounds on VLA-4-mediated Jurkat cell binding to VCAM-1. The assay has been successfully used in the past to determine the selectivity of small molecule LFA-1 inhibitors over the integrin VLA-4.
Experimental Protocol: The adhesion assay was performed as described above for the Jurkat/ICAM-1 V well adhesion assay. Briefly, plates were coated with anti-human IgG mAb and blocked with BSA as described above. Instead of ICAM-1, recombinant human VCAM-1/CD106 Fc chimera (R&D Systems) was coated onto the plates (0.3 μg/mL in coating buffer). After incubation, labelled Jurkat cells in binding buffer were transferred to the wells (20,000 cells/well). The plates were immediately centrifuged at 1000 rpm for 4 min at rt (Centrifuge Eppendorf 5810 R) setting the brakeoff. Non-adherent cells were quantified in the tip of the Vbottom well using a fluorescence reader. IC50 values of the compounds were calculated using the software GraphPad Prism 6.

[3] = biological target: T1, LFA-1; assay: Flow cytometry, mAb R7.1 binding to LFA-1 expressed on leukocytes; details: Jurkat cells or human PBMCs, values of independent experiments; for inhibition at 1 µM: Jurkat
Method: Measurement of mAb R7.1 binding to LFA-1 (mAb R7.1 binding)
Purpose of the Assay: This flow cytometry assay determines the effect of the compounds on the binding of the anti-LFA-1 mAb R7.1 to LFA-1 expressed on leukocytes.
Experimental Protocol: Jurkat cells or human peripheral blood mononuclear cells (PBMCs) were resuspended in assay buffer (50 mM Tris, 150 mM NaCl, 2 mM MgCl2, 1.5% BSA and 5 mM D-glucose monohydrate, pH7.2) at 2×10^6 cells/mL and 500 μL of this cell suspension (1×10^6 cells) were transferred into polypropylene tubes containing the test compounds diluted in 500 μL assay buffer. The samples were pre-incubated at 37° C. for 40 min, and centrifuged. The supernatants were removed and FITC-labelled anti-LFA-1 mAb R7.1 and PE-labeled anti-LFA-1 mAb TS2/4 (mAb TS2/4 is not affected by alpha I allosteric inhibitor binding to LFA-1) or appropriate isotype controls were added directly to each cell pellet. The pellets were then gently pipetted up and down and incubated on ice for 30 min in the dark. After the incubation step the cells were washed twice with PBS and resuspended in PBS.
Antibody binding was analyzed by flow cytometry. Mean fluorescence intensities (MFI) were calculated using the CellQuest software. The values are expressed as % of solvent control (solvent control=100% binding).

[4] = biological target: T1, LFA-1; assay: Flow cytometry, mAb MEM148 binding to LFA-1 expressed on leukocytes; details: solvent ctrl = 1, Jurkat cells or PBMCs
Method: Quantification of mAb MEM148 Binding to LFA-1 (mAb MEM148 Binding)
Purpose of the Assay: This flow cytometry assay determines the effect of the compounds on the binding of the conformation-sensitive anti-LFA-1 mAb MEM148 to LFA-1 expressed on leukocytes. The mAb MEM148 detects an epitope which becomes exposed in activated LFA-1 [Yuki 2012]
Experimental Protocol: The assay is performed as the flow cytometry assay described above.
Briefly, Jurkat cells or PBMCs in assay buffer (50 mM Tris, 150 mM NaCl, 1 mM CaCl2, 1 mM MgCl2, 5 mM Glucose, 1.5% BSA, pH 7.3) were pre-incubated with the compounds and appropriate positive controls for 40 min at rt. After incubation, the cell-suspension was centrifuged, the supernatant discarded and PE-labelled anti-LFA-1 mAb MEM148 was directly added to the pellets. After pipetting up and down, the tubes were incubated for 30 min. at 37° C. in the dark. The pellet was washed twice with 1 mL PBS and resuspended in PBS. Antibody binding was quantified by flow cytometry. Mean fluorescence intensities (MFI) were calculated using the CellQuest software.

[5] = test system: Jurkat cells; assay: Toxilight BioAssay (adenylate kinase release), Jurkat; details: 24 hours exposure, mean ± SD of triplicates
Description: (§1) Assessment of Cellular Toxicity (Toxilight Assay and CellTiter-Glo Assay)
(§2) Purpose. To detect potential cellular toxicity of present LFA-1 inhibitors two complementary assays were chosen: the Toxilight™ BioAssay (Lonza) and the CellTiter-Glo™ Luminescent Cell Viability Assay (Promega). The Toxilight assay measures cell death via the release of the cytosolic enzyme adenylate kinase into the supernatant of treated cell cultures. The CellTiter-Glo assay directly determines the key energy metabolite ATP, resulting in sensitive quantitation of the number of healthy cells in culture.
(§3) Both assays were used with two different cell lines: the Jurkat and HepG2 cell lines. Jurkat, a human lymphocytic leukemia cell line, was utilized to assess the effect of the compounds on LFA-1 expressing cells. HepG2, a human hepatocyte cell line, was used to assess the response of liver cells where drugs are metabolized. Both assays included the use of untreated cells, and cells treated with amiodarone or 0.5% Triton X 100 as cytotoxic controls.
(§4) Jurkat cells and HepG2 cells were cultured in RPMI 1640 containing 10% FCS or DMEM containing 10% FCS under standard conditions (recommended by ATCC). Compounds were dissolved in DMSO and serially pre-diluted in DMSO (100%) to avoid precipitation of the compounds, before final dilution steps in culture medium containing FCS were performed. The final DMSO concentration was kept constant at 0.5% in all samples.
(§5) The test compounds and controls were exposed to the cells for 24 hours respectively at 37° C. Then adenylate kinase activity was quantified in the supernatant of the cell cultures using the ToxiLight™ reagent. In an independent set of experiments ATP content was measured by adding the CellTiter-Glo™ reagent according to manufacturer's instructions.

[6] = test system: HepG2 cells; assay: Toxilight BioAssay (adenylate kinase release), HepG2; details: 24 hours exposure, mean ± SD of triplicates
Description: as §1, §2, §3, §4, §5

[7] = test system: Jurkat cells; assay: CellTiter-Glo Luminescent Cell Viability Assay (ATP), Jurkat; details: 24 hours exposure, mean ± SD of triplicates
Description: as §1, §2, §3, §4, §5

[8] = test system: HepG2 cells; assay: CellTiter-Glo Luminescent Cell Viability Assay (ATP), HepG2; details: 24 hours exposure, mean ± SD of triplicates
Description: as §1, §2, §3, §4, §5

T1 sequence (P20701 26-1170): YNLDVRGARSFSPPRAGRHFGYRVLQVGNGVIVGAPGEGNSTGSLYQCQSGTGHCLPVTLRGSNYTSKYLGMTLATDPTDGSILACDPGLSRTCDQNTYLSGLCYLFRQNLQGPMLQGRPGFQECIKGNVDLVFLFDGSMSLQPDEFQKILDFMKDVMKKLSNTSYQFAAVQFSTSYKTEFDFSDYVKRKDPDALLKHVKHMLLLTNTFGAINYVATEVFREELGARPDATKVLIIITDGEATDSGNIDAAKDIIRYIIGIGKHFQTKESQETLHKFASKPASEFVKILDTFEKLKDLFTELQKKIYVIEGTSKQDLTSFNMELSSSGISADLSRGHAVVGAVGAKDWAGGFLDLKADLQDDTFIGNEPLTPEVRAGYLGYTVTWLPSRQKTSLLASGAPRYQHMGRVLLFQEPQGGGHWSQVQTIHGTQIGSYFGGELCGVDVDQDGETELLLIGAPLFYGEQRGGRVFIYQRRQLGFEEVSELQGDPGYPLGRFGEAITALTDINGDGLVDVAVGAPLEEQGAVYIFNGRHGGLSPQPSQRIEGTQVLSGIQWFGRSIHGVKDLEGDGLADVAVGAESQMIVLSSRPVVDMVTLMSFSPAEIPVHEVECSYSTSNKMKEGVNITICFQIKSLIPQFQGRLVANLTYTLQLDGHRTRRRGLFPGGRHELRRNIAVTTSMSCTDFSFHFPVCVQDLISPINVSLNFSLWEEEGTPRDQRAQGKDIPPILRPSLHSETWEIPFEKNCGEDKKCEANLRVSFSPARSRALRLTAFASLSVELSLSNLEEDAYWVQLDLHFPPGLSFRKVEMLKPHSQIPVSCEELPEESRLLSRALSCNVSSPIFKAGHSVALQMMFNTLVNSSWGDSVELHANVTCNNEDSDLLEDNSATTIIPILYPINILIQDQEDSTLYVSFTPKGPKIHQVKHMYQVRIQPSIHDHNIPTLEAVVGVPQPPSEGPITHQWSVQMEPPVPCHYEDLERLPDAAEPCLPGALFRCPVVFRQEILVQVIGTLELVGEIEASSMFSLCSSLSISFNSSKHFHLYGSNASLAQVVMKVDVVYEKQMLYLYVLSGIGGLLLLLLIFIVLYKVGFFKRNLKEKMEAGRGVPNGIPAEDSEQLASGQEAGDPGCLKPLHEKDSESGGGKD
T1 sequence (P05107 23-769 partner): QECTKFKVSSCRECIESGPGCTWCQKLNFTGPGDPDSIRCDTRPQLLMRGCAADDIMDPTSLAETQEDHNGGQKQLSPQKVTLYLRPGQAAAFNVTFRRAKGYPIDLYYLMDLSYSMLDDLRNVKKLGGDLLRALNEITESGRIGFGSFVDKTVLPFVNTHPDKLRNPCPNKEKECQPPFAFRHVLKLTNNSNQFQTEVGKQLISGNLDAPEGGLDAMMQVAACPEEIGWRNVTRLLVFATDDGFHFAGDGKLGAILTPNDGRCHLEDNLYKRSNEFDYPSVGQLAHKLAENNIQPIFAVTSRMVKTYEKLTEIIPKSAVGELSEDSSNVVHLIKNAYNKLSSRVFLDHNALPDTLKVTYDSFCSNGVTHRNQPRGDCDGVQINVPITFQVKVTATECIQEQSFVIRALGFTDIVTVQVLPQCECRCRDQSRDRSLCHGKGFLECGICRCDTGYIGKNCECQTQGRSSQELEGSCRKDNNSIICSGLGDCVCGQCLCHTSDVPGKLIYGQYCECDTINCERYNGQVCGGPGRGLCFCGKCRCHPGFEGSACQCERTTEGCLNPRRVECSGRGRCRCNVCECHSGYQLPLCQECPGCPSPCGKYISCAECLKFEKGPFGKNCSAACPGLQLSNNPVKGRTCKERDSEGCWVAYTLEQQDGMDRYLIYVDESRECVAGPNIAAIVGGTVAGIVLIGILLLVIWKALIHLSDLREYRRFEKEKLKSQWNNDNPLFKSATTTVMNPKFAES

Compound | IC50 [1] [nM] | IC50 [2] [nM] | mAb R7.1 binding % inhibition at 1 μM [3] [%] | inhibition at 1 µM [3] [%] | mAb MEM148 binding, binding relative to solvent ctrl at 10 μM [4] | Toxilight Jurkat % viability at 10 μM [5] [%] | Toxilight HepG2 % viability at 10 μM [6] [%] | CellTiter-Glo Jurkat % viability at 10 μM [7] [%] | CellTiter-Glo HepG2 % viability at 10 μM [8] [%]
C[C@]12C(=O)N(c3cc(Cl)cc(Cl)c3)C(=O)[C@H]1[C@H]2c1ccc(C#N)cc1 (racemic) [4′h (racemate), rac-4-[(1R,5S,6S)-3-(3,5-Dichlorophenyl)-1-methyl-2,4-dioxo-3-azabicyclo[3.1.0]hexan-6-yl]benzonitrile] | 147 | > 10000 | 95.8 | 96.8 | 1.00 | 93.5 ± 2.06 | 78.3 ± 35.2 | 112.6 ± 4.9 | 103.7 ± 3.2
C[C@]12C(=O)N(c3cc(Cl)cc(Cl)c3)C(=O)[C@H]1C2(c1ccccc1)c1ccccc1 (racemic) [4b (racemate), rac-(1S,5S)-3-(3,5-Dichlorophenyl)-1-methyl-6,6-diphenyl-3-azabicyclo[3.1.0]hexane-2,4-dione] | 1870 ± 1270 | > 10000 | 80.0 | 76.9 | 0.974 | 101 ± 9.8 | 124 ± 29.7 | 96.8 ± 4.7 | 98.4 ± 3.8
CC12C(=O)N(c3cc(Cl)cc(Cl)c3)C(=O)C1C2(c1ccccc1)c1ccccc1 (single isomer, unassigned) [4b enantiomer A] | 1340 ± 678 | > 10000 |  | 87.3 | no | 100 ± 12.9 | 120 ± 40.2 | 92.8 ± 4.7 | 101.5 ± 1.9
C[C@]12C(=O)N(c3cc(Cl)cc(Cl)c3)C(=O)[C@H]1[C@H]2c1ccc(OC(F)(F)F)cc1 (racemic) [4′g (racemate), rac-(1R,5S,6S)-3-(3,5-Dichlorophenyl)-1-methyl-6-[4-(trifluoromethoxy)phenyl]-3-azabicyclo[3.1.0]hexane-2,4-dione] | 550 ± 206 | > 10000 | 94.1 | 93.6 | 0.89 | 116 ± 16.2 | 99.8 ± 26.5 | 111.4 ± 7.4 | 102.6 ± 4.5
C[C@]12C(=O)N(c3cc(Cl)cc(Cl)c3)C(=O)[C@H]1[C@H]2c1ccc(Br)cc1 (racemic) [4′f (racemate), rac-(1R,5S,6S)-6-(4-Bromophenyl)-3-(3,5-dichloro-phenyl)-1-methyl-3-azabicyclo[3.1.0]hexane-2,4-dione] | 715 ± 618 | > 10000 | 91.7 | 85.2 | 0.96 | 99.9 ± 24.2 | 115.6 ± 35.1 | 115.0 ± 4.8 | 101.6 ± 4.0
